In patent US20090117176A1, “Anticancer Treatments” (Pharma Mar, S.A. Sociedad Unipersonal, priority 2004, published 2009):

Assays:
cancer = experiment: Phase I trial combining PLD and trabectedin: best overall response; type: in vivo, human; settings: for Best Overall Response: SD (patients, tumour type): stable disease > 3 months
Procedure: (§1) A phase I trial combining PLD and trabectedin was performed. The objective of this study was to determine the maximum tolerated dose (MTD) of trabectidin in combination with PLD 30 mg/m^2 administered every 21 clays. Additional objectives were to evaluate the safety profile of this combination of drugs and to evaluate the pharmacokinetics of trabectidin and PDL when given in combination. The maximum tolerated dose (MTD) relates to the highest dose at which less than one third of the subjects in a dose-level cohort experienced dose-limiting toxicity (DLT).
(§2) We designed a dose finding trial with a fixed PLD dose of 30 mg/m^2 administered intravenously over one hour, followed immediately by one of six trabectedin doses (0.4, 0.6, 0.75, 0.9, 1.1, and 1.3 mg/m^2) administered intravenously over 3 hours. This treatment was repeated every 21 days.
Thirty patients, 14 with sarcomas, 2 with ovarian cancer, 2 with pancreatic cancer, 2 with head and neck carcinoma, 1 with bladder cancer, 1 with breast cancer, 1 with gastric cancer, 1 with NSCLC, 1 with SCLC and 5 more with other types of cancers have been treated (Table 1).
Fourteen (14) additional patients (five with sarcoma, and one each carcinoid tumor, pancreatic, bladder, head and neck, thyroid, breast, gastric, SCLC and ovarian cancer) have had stable disease for > 3 months (Table 8a and 8b).

[1] = Phase I trial combining PLD and trabectedin: pharmacokinetics of trabectedin; type: in vivo, human; settings: for AUC∞ / Cl / Cmax / T1/2: mean; for Impact of concomitant PLD on the pharmacokinetics of trabectedin: preliminary analysis, versus historical control data of trabectedin alone
Procedure: as §1, §2
Based on preliminary pharmacokinetic analysis, the values of trabectedin CL (systematic clearance after i.v. dose), t½ (half life) and Vss (apparent volume of distribution at steady state) are within the range observed when trabectedin is given alone (historical control data) (FIG. 1, Table 9),

[2] = ET743 0.4 mg/m^2 + PLD 30 mg/m^2, N = 3
[3] = ET743 0.6 mg/m^2 + PLD 30 mg/m^2, N = 3
[4] = ET743 0.75 mg/m^2 + PLD 30 mg/m^2, N = 3
[5] = ET743 0.9 mg/m^2 + PLD 30 mg/m^2, N = 3
[6] = ET743 1.1 mg/m^2 + PLD 30 mg/m^2, N = 12
[7] = ET-743 0.9 mg/m^2 3 hours infusion after PLD 30 mg/m^2 1 hour infusion, N 3
[8] = ET-743 1.1 mg/m^2 3 hours infusion after PLD 30 mg/m^2 1 hour infusion, N 3
[9] = ET-743 1.3 mg/m^2 3 hours infusion after PLD 30 mg/m^2 1 hour infusion, N 2

COc1cc2c(cc1O)CCN[C@]21CS[C@@H]2c3c(OC(C)=O)c(C)c4c(c3[C@H](COC1=O)N1[C@@H]2[C@H]2c3c(cc(C)c(OC)c3O)C[C@@H]([C@@H]1O)N2C)OCO4 [ET743, Ecteinascidin 743]
Best Overall Response: PR (patients, tumour type) (cancer; [2]): 1 Sarcoma
Treatment termination, subjects: Disease Progression (cancer; [2]): 2
Best Overall Response: PR (patients, tumour type) (cancer; [3]): 0
Treatment termination, subjects: Disease Progression (cancer; [3]): 1
Best Overall Response: PR (patients, tumour type) (cancer; [4]): 0
Treatment termination, subjects: Disease Progression (cancer; [4]): 2
Best Overall Response: SD (patients, tumour type) (cancer; [4]): 1 Thyroid
Best Overall Response: PR (patients, tumour type) (cancer; [5]): 0
Treatment termination, subjects: Disease Progression (cancer; [5]): 3
Best Overall Response: SD (patients, tumour type) (cancer; [5]): 0
Best Overall Response: PR (patients, tumour type) (cancer; [6]): 1 Sarcoma
Treatment termination, subjects: Disease Progression (cancer; [6]): 5
Treatment termination, subjects: Disease Progression (cancer; ET743 1.3 mg/m^2 + PLD 30 mg/m^2, N = 6): 2
Clinical benefit (measurable responses) (cancer; ET-743 together with PLD, soft tissue sarcoma, ovarian and head and neck cancer): measurable responses demonstrated evidence of clinical benefit
Treatment termination, subjects: Disease Progression (cancer; Total, all ET743 dose levels + PLD 30 mg/m^2, N = 30): 15
AUC∞ [1, 7]: 39 ng·h/mL
Cl [1, 7]: 23 l/h/m2
Cmax [1, 7]: 6 ng/mL
T1/2 [1, 7]: 93 h
AUC∞ [1, 8]: 42 ng·h/mL
Cl [1, 8]: 26 l/h/m2
Cmax [1, 8]: 6 ng/mL
T1/2 [1, 8]: 65 h
AUC∞ [1, 9]: 31 ng·h/mL
Cl [1, 9]: 44 l/h/m2
Cmax [1, 9]: 7 ng/mL
T1/2 [1, 9]: 47 h
Impact of concomitant PLD on the pharmacokinetics of trabectedin [1]: does not have an impact
Impact of concomitant PLD on the pharmacokinetics of trabectedin ([1]; listed as trabectidin): overtly not impacted
